Reference: patent publication US20060069132A1, “Azolecarboxamide herbicides” (priority 2004, published 2006)

Assays:
blackgrass = assay: Test B postemergence herbicide test; assay type: in vivo, Alopecurus myosuroides; conditions: postemergence
Summary of the method: (§1)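 After treating 2-leaf paddy plants or 2–18 cm postemergence plants (1 to 4 leaves) with formulated chemical, researchers kept them in a greenhouse for 13–15 days. Effects were judged visually versus controls: 0 indicates none, 100 total control.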

rice [1] = assay: Test B flooded paddy test; assay type: in vivo, Oryza sativa; conditions: 1000 g ai/ha, scale 0 to 100 (0 no effect, 100 complete control)
Summary of the method: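 Formulated test chemicals went onto postemergence plants measuring 2 to 18 cm, at one to four leaves. For the paddy assay, species had reached two leaves. Scoring took place 13–15 days later by eye, relative to untreated plants, using 0 for no effect up to 100 for full control.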

ducksalad [2] = assay: Test B flooded paddy test; assay type: in vivo, Heteranthera limosa; conditions: 1000 g ai/ha, scale 0 to 100 (0 no effect, 100 complete control)
Summary of the method: as §1

rice [3] = assay: Test C flooded paddy test; assay type: in vivo, Oryza sativa; conditions: for Plant response rating, Rice: 500 g ai/ha, visual rating after 12 to 14 days
Summary of the method: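 Postemergence sprays applied to plants 2 to 18 cm tall (1- to 4-leaf stage); paddy species grown to 2-leaf stage under flooding. After 12 to 14 days in greenhouse, visual rating versus untreated controls on 0–100 scale (0 no effect, 100 complete control).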

[4] = system: small flower umbrella sedge; assay: Test B flooded paddy test; assay type: in vivo, Cyperus difformis; conditions: 1000 g ai/ha, scale 0 to 100 (0 no effect, 100 complete control)
Summary of the method: as §1

morningglory = assay: Test B pre-/postemergence herbicide test; assay type: in vivo, Ipomoea coccinea; conditions: for Plant response rating (0 to 100 scale), Morningglory: 0 is no effect, 100 is complete control, preemergence; for Morningglory plant response rating: scale 0 (no effect) to 100 (complete control)
Summary of the method: (§2)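 Flooded paddy rice and barnyardgrass were treated at the 2-leaf stage; upland plantings received compound either on sown seed or on 1- to 4-leaf seedlings. All were kept 13–15 days in a greenhouse and scored visually, 0–100, relative to untreated plants.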

Surinam grass = assay: Test B pre-/postemergence herbicide test; assay type: in vivo, Urochloa decumbens; conditions: for Plant response rating (0 to 100 scale), Surinam Grass: 0 is no effect, 100 is complete control, preemergence; for Surinam Grass plant response rating: scale 0 (no effect) to 100 (complete control)
Summary of the method: (§3)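 Plants compared with untreated controls 13–15 days post-treatment and given a visual 0–100 injury score. Applications: preemergence to seeds; postemergence at 1- to 4-leaf (2–18 cm); paddy species flooded, 2-leaf stage. Vehicle non-phytotoxic, surfactant included.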

corn = assay: Test B pre-/postemergence herbicide test; assay type: in vivo, Zea mays; conditions: for Plant response rating (0 to 100 scale), Corn: 0 is no effect, preemergence; for Corn plant response rating: postemergence
Summary of the method: as §3

[5] = system: smallflower umbrella sedge; assay: Test C flooded paddy test; assay type: in vivo, Cyperus difformis
barnyardgrass [6] = assay: Test B pre-/postemergence herbicide test; assay type: in vivo, Echinochloa crus-galli; conditions: for Plant response rating (0 to 100 scale), Barnyardgrass: 0 is no effect, preemergence; for Barnyardgrass plant response rating: postemergence
Summary of the method: as §2

wild oat = assay: Test B postemergence herbicide test; assay type: in vivo, Avena fatua; conditions: scale 0 (no effect) to 100 (complete control)
Summary of the method: (§4)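 Visual ratings, 0 (no effect) to 100 (complete control), made versus controls after 13–15 d greenhouse. Paddy plants treated at 2-leaf stage; postemergence plants at 1- to 4-leaf stage, 2–18 cm tall.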

ducksalad [7] = assay: Test C flooded paddy test; assay type: in vivo, Heteranthera limosa
lambsquarters = assay: Test B pre-/postemergence herbicide test; assay type: in vivo, Chenopodium album; conditions: for Lambsquarters plant response rating: scale 0 (no effect) to 100 (complete control)
Summary of the method: as §3

velvetleaf = assay: Test B pre-/postemergence herbicide test; assay type: in vivo, Abutilon theophrasti; conditions: for Plant response rating (0 to 100 scale), Velvetleaf: 0 is no effect, 100 is complete control, preemergence; for Velvetleaf plant response rating: scale 0 (no effect) to 100 (complete control)
Summary of the method: as §3

barnyardgrass [8] = assay: Test B flooded paddy test; assay type: in vivo, Echinochloa crus-galli; conditions: 1000 g ai/ha, scale 0 to 100 (0 no effect, 100 complete control)
Summary of the method: as §1

cocklebur = assay: Test B pre-/postemergence herbicide test; assay type: in vivo, Xanthium strumarium; conditions: for Plant response rating (0 to 100 scale), Cocklebur: 0 is no effect, preemergence; for Cocklebur plant response rating: postemergence
Summary of the method: as §2

large crabgrass = assay: Test B pre-/postemergence herbicide test; assay type: in vivo, Digitaria sanguinalis; conditions: for Plant response rating (0 to 100 scale), Crabgrass, Large: 0 is no effect, preemergence; for Crabgrass, Large plant response rating: postemergence
Summary of the method: as §3

giant foxtail = assay: Test B pre-/postemergence herbicide test; assay type: in vivo, Setaria faberi; conditions: for Plant response rating (0 to 100 scale), Foxtail, Giant: 0 is no effect, preemergence; for Foxtail, Giant plant response rating: postemergence
Summary of the method: as §3

pigweed = assay: Test B pre-/postemergence herbicide test; assay type: in vivo, Amaranthus retroflexus; conditions: for Plant response rating (0 to 100 scale), Pigweed: 0 is no effect, 100 is complete control, preemergence; for Pigweed plant response rating: scale 0 (no effect) to 100 (complete control)
Summary of the method: as §3

barnyardgrass [9] = assay: Test C flooded paddy test; assay type: in vivo, Echinochloa crus-galli; conditions: for Plant response rating, Barnyardgrass: 500 g ai/ha, visual rating after 12 to 14 days
Summary of the method: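 Injury scored visually against controls on a 0 (no effect) to 100 (complete control) scale, 12 to 14 days after treatment in greenhouse. Flooded paddy plants treated at 2-leaf stage; postemergence plants at 1- to 4-leaf stage, 2 to 18 cm tall.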

wheat = assay: Test B postemergence herbicide test; assay type: in vivo, Triticum aestivum; design: key to Wheat plant response rating: 0 = no effect, 100 = complete control
Summary of the method: as §4

[10] = 125 g ai/ha, visual rating, scale 0 (no effect) to 100 (complete control)
[11] = 500 g ai/ha, scale 0 to 100, 0 is no effect, 100 is complete control
[12] = 125 g ai/ha, scale 0 to 100 (0 no effect, 100 complete control)
[13] = 250 g ai/ha, scale of 0 to 100, 0 is no effect, 100 is complete control
[14] = scale 0 to 100 (0 no effect, 100 complete control)
[15] = 125 g ai/ha, visual rating, postemergence
[16] = 125 g ai/ha, 100 is complete control
[17] = 62 g ai/ha, scale 0 to 100 (0 no effect, 100 complete control)
[18] = 125 g ai/ha, visual rating, scale 0 (no effect) to 100 (complete control), postemergence
[19] = 500 g ai/ha, scale 0 to 100, 0 no effect, 100 complete control, preemergence
[20] = Postemergence, 500 g ai/ha, scale 0 (no effect) to 100 (complete control)
[21] = 500 g ai/ha, visual rating after 12 to 14 days, scale 0 to 100 (0 no effect, 100 complete control)

CCc1nn(C(C)(C)CC)nc1C(=O)Nc1cc(C(=O)N(C)C)ccc1F [Compound 368]
20: Rice plant response rating (rice [3]; 62 g ai/ha, scale 0 to 100) | Sedge, Umbrella plant response rating ([5]; 62 g ai/ha, scale 0 to 100) | Velvetleaf plant response rating (velvetleaf; Postemergence, 500 g ai/ha) | Cocklebur plant response rating (cocklebur; [10]) | Plant response rating (0 to 100 scale), Foxtail, Giant (giant foxtail; [16])
45: Rice plant response rating (rice [3]; [12])
0: Blackgrass plant response rating (blackgrass; [10]) | Plant response rating (0 to 100 scale), Morningglory (morningglory; 125 g ai/ha) | Morningglory plant response rating (morningglory; [15]) | Surinam Grass plant response rating (Surinam grass; [15]) | Surinam Grass plant response rating (Surinam grass; Postemergence, 500 g ai/ha) | Plant response rating (0 to 100 scale), Corn (corn; [16]) | Corn plant response rating (corn; [10]) | Barnyardgrass plant response rating (barnyardgrass [6]; [10]) | Oat, Wild plant response rating (wild oat; [15]) | Oat, Wild plant response rating (wild oat; Postemergence, 500 g ai/ha) | Ducksalad plant response rating (ducksalad [7]; 62 g ai/ha, scale 0 to 100) | Plant response rating (0 to 100 scale), Velvetleaf (velvetleaf; 125 g ai/ha) | Plant response rating (0 to 100 scale), Cocklebur (cocklebur; [16]) | Foxtail, Giant plant response rating (giant foxtail; [10]) | Barnyardgrass plant response rating (barnyardgrass [9]; [17]) | Barnyardgrass plant response rating (barnyardgrass [9]; [12]) | Barnyardgrass plant response rating (barnyardgrass [9]; [13]) | Wheat plant response rating (wheat; [18]) | Wheat plant response rating (wheat; [20])
80: Sedge, Umbrella plant response rating [4] | Ducksalad plant response rating (ducksalad [7]; [12])
50: Rice plant response rating (rice [1]) | Lambsquarters plant response rating (lambsquarters; [15]) | Pigweed plant response rating (pigweed; Postemergence, 500 g ai/ha)
40: Plant response rating (0 to 100 scale), Barnyardgrass (barnyardgrass [6]; [16])
75: Sedge, Umbrella plant response rating [5, 12] | Sedge, Umbrella plant response rating [5, 13]
90: Ducksalad plant response rating (ducksalad [2]) | Ducksalad plant response rating (ducksalad [7]; [13])
10: Blackgrass plant response rating (blackgrass; [11]) | Plant response rating (0 to 100 scale), Surinam Grass (Surinam grass; 125 g ai/ha) | Corn plant response rating (corn; [11]) | Barnyardgrass plant response rating (barnyardgrass [6]; [11]) | Velvetleaf plant response rating (velvetleaf; [15]) | Plant response rating (0 to 100 scale), Crabgrass, Large (large crabgrass; [16]) | Crabgrass, Large plant response rating (large crabgrass; [10]) | Crabgrass, Large plant response rating (large crabgrass; [11]) | Foxtail, Giant plant response rating (giant foxtail; [11]) | Pigweed plant response rating (pigweed; [15]) | Wheat plant response rating (wheat; [19])
70: Plant response rating, Rice (rice [3]; [14])
60: Rice plant response rating (rice [3]; [13]) | Lambsquarters plant response rating (lambsquarters; Postemergence, 500 g ai/ha) | Barnyardgrass plant response rating (barnyardgrass [8])
30: Morningglory plant response rating (morningglory; Postemergence, 500 g ai/ha) | Cocklebur plant response rating (cocklebur; [11]) | Plant response rating (0 to 100 scale), Pigweed (pigweed; 125 g ai/ha) | Plant response rating, Barnyardgrass (barnyardgrass [9]; [14])

C=CCNC(=O)c1ccc(F)c(NC(=O)c2nn(C(C)(C)C)nc2CC)c1 [Compound 383]
50: Plant response rating, Rice (rice [3]; [14]) | Plant response rating (0 to 100 scale), Crabgrass, Large (large crabgrass; [16])
95: Plant response rating, Ducksalad (ducksalad [7]; [21])
5: Rice plant response rating (rice [3]; [12])
80: Sedge, Umbrella plant response rating [4]
70: Ducksalad plant response rating (ducksalad [2])
20: Blackgrass plant response rating (blackgrass; [11]) | Surinam Grass plant response rating (Surinam grass; Postemergence, 500 g ai/ha) | Oat, Wild plant response rating (wild oat; Postemergence, 500 g ai/ha) | Lambsquarters plant response rating (lambsquarters; [15]) | Pigweed plant response rating (pigweed; [15])
10: Morningglory plant response rating (morningglory; [15]) | Morningglory plant response rating (morningglory; Postemergence, 500 g ai/ha) | Plant response rating (0 to 100 scale), Surinam Grass (Surinam grass; 125 g ai/ha) | Surinam Grass plant response rating (Surinam grass; [15]) | Plant response rating (0 to 100 scale), Barnyardgrass (barnyardgrass [6]; [16]) | Plant response rating (0 to 100 scale), Velvetleaf (velvetleaf; 125 g ai/ha) | Velvetleaf plant response rating (velvetleaf; [15]) | Cocklebur plant response rating (cocklebur; [11]) | Crabgrass, Large plant response rating (large crabgrass; [11]) | Plant response rating (0 to 100 scale), Foxtail, Giant (giant foxtail; [16]) | Wheat plant response rating (wheat; [19])
35: Rice plant response rating (rice [3]; [13])
60: Rice plant response rating (rice [1])
65: Sedge, Umbrella plant response rating [5, 13]
15: Barnyardgrass plant response rating (barnyardgrass [9]; [13])
30: Lambsquarters plant response rating (lambsquarters; Postemergence, 500 g ai/ha) | Barnyardgrass plant response rating (barnyardgrass [8]) | Pigweed plant response rating (pigweed; Postemergence, 500 g ai/ha)
0: Blackgrass plant response rating (blackgrass; [10]) | Rice plant response rating (rice [3]; 62 g ai/ha, scale 0 to 100) | Plant response rating (0 to 100 scale), Morningglory (morningglory; 125 g ai/ha) | Plant response rating (0 to 100 scale), Corn (corn; [16]) | Corn plant response rating (corn; [10]) | Corn plant response rating (corn; [11]) | Sedge, Umbrella plant response rating ([5]; 62 g ai/ha, scale 0 to 100) | Barnyardgrass plant response rating (barnyardgrass [6]; [10]) | Barnyardgrass plant response rating (barnyardgrass [6]; [11]) | Oat, Wild plant response rating (wild oat; [15]) | Ducksalad plant response rating (ducksalad [7]; 62 g ai/ha, scale 0 to 100) | Plant response rating (0 to 100 scale), Cocklebur (cocklebur; [16]) | Cocklebur plant response rating (cocklebur; [10]) | Crabgrass, Large plant response rating (large crabgrass; [10]) | Foxtail, Giant plant response rating (giant foxtail; [10]) | Foxtail, Giant plant response rating (giant foxtail; [11]) | Plant response rating (0 to 100 scale), Pigweed (pigweed; 125 g ai/ha) | Barnyardgrass plant response rating (barnyardgrass [9]; [17]) | Barnyardgrass plant response rating (barnyardgrass [9]; [12]) | Wheat plant response rating (wheat; [18]) | Wheat plant response rating (wheat; [20])
45: Sedge, Umbrella plant response rating [5, 12] | Ducksalad plant response rating (ducksalad [7]; [12]) | Ducksalad plant response rating (ducksalad [7]; [13])
90: Plant response rating, Sedge, Umbrella [5, 21]
40: Plant response rating (0 to 100 scale), Lambsquarters (lambsquarters; 125 g ai/ha, 0 is no effect, 100 is complete control, preemergence) | Velvetleaf plant response rating (velvetleaf; Postemergence, 500 g ai/ha) | Plant response rating, Barnyardgrass (barnyardgrass [9]; [14])
